For experiment [1], the system named is Vav3−/− p190-BCR-ABL1 BM leukemic cells expressing full-length Vav3. Nature of the experiment: Vav3 rescue, cell cycle analysis. Format: cell-based, murine. The note with it: 10 μM, 18 h. An excerpt:
FIG. 15: Expression of transgenic Vav3 re-sensitizes Vav3-deficient cells to IODVA1. (A) Vav3 domain structure, calponin-homology (CH), acidic region (Ac), Dbl-homology (DH), pleckstrin-homology (PH), zinc finger (ZF), Src-homology 2 and 3 (SH2/SH3). (B) Representative histogram data of the cell cycle analysis of wild-type (Vav3^+/+) and Vav3-deficient (Vav3^−/−) p190-BCR-ABL1 leukemic bone marrow cells expressing empty vector, full-length Vav3 or ΔCH mutant and treated with vehicle control (black) or IODVA1 at 5 (red) or 10 μM (dark grey) for 18 h. (C) Quantification of the average number of colonies made by bone marrow wild-type and Vav3^−/− p190-BCR-ABL1 leukemic bone marrow cells expressing empty vector, full-length Vav3 or ΔCH mutant and treated with vehicle control (black) or IODVA1 at 1 (light salmon), 5 (red) and 10 μM (dark grey). *** p≤0.001.
Next, we reasoned that if IODVA1 targets Vav3, rescuing Vav3^−/− leukemic cells by expressing exogenous Vav3 should re-sensitize those cells to IODVA1. We expressed full-length Vav3 or the dominant active ΔCH-mutant (FIG. 15A) in Vav3^−/− p190-BCR-ABL1-transformed murine bone marrow leukemic cells and analyzed changes in cell cycle 18 h post-treatment with vehicle control or IODVA1 (FIG. 15B). Expressing full-length Vav3 but not the empty vector re-sensitized the Vav3^−/− BM leukemic cells to IODVA1 as shown by a 5.8-fold increase in apoptosis (p=0.0005) and a 15% decrease (p=0.08) in cells in the S-phase at 10 μM.
For Vav3 rescue experiments, low density bone marrow cells from wild-type ([…]) or Vav3^−/− mice were transduced with bicistronic retroviral vector encoding p190 BCR-ABL1-IRES-YFP (yellow fluorescent protein) and YFP^+ cells were sorted 48 h post-transduction. […] Cell cycle was analyzed at 18 h post BrdU incorporation.
Cell cycle was analyzed by using in vitro incorporation of 5-Bromo-2-deoxyuridine using Brdu Flow kit (BD Pharmingen, Cat #552598). […] DNAse treatment was done according to the instructions and stained with anti BrdU and apoptosis was analyzed by 7-AAD staining through flow cytometry analysis.

The test system of experiment [2] is pPAK1(T423)/pPAK2(T402) in MDA-MB-231 cells. Nature of the experiment: pPAK immunoblot. The class given is cell-based, human. The note with it: 1 μM, 30 min. As to the method: FIG. 5: Cytoskeletal changes induced by IODVA1 treatment. IODVA1 inhibits lamellipodia and circular dorsal ruffle (CDR) formation in MDA-MB-231 cells and decreases Rac activation. (A) IODVA1 inhibits EGF-induced lamellipodia formation in MDA-MB-231 cells. MDA-MB-231 cells were plated on fibronectin-coated coverslips, serum starved for 4 h, incubated with the indicated concentrations of IODVA1 for 1 h, then EGF (50 ng/mL) stimulated, fixed and stained with Phalloidin Alexa Fluor 594 (F-Actin, pseudocolored red) and DAPI (nuclei, pseudocolored blue). […] The percentage of cells with CDRs was counted as the number of cells with CDRs normalized to the total number of cells in the field. Around 150 cells were counted per condition per experiment. Cells with multiple CDRs were counted only once. […] Levels of active Rac (RacGTP, % of control), active Cdc42 (Cdc42GTP, % of control) and active RhoA (RhoAGTP, % of control) were quantified using ImageJ and ImageLab and show combined data as mean±s.e.m. from at least 3 independent experiments. […]
To confirm that IODVA1 interferes with Rac activation, applicants checked the levels of active Rac and its downstream effector PAK1/2. MDA-MB-231 cells were incubated with IODVA1 (0-3 μM) for 1 h and levels of GTP-bound active Rac were measured by GST-PAK-GBD pull-downs and quantified (FIG. 5C). […]

As for `OC1(c2ccccn2)N=C(Nc2nc3ccccc3[nH]2)N=C1c1ccccn1` (stereo not drawn) [IODVA1, (Z)-2-((1H-benzo[d]imidazol-2-yl)imino)-4,5-di(pyridin-2-yl)-2,5-dihydro-1H-imidazol-5-ol], the increase in apoptosis in experiment [1] (p=0.0005) is on record as 5.8 fold. In experiment [1] (p=0.08), the “decrease in cells in the S-phase” value is recorded as 15%. For the same compound, the “decrease in levels of pPAK1/2 (T423/T402)” value in experiment [2] was 50%.

For the origin of these results see patent US11564913B2, “Compositions and methods for treating cancer” (Children's Hospital Medical Center, priority 2019, dated 2023).
